Assay results as given in patent US4398023A, “β-1,3-Glucanpolyol, process for preparation thereof, and utilization thereof” (Meito Sangyo Kabushiki Kaisha, priority 1979, dated 1983).

Columns and labels:
[1] = system: Sarcoma 180; test: Antitumor activity test using Sarcoma 180 in ICR-JCL mice; type: in vivo; details: intraperitoneal, once a day for 10 days, fifth week
Description: (1) An antitumor activity test using Sarcoma 180 in ICR-JCL mice
(§1) Starting 24 hours after the transplantation, the glucanpolyol of this invention was intraperitoneally administered once a day for 10 days. In the fifth week, the tumor was enucleated and its weight was compared with that in non-treated groups. The tumor inhibition ratio was calculated, and the number of tumors which completely regressed was observed.
(§2) The tumor inhibition ratio was calculated in accordance with the following equation. [formula] wherein C is the average weight of tumor in non-treated groups (10 mice per group),
(§3) T is the average weight of tumor in treated groups (10 mice per group).

[2] = system: Ehrlich Carcinoma; test: Antitumor activity test using Ehrlich Carcinoma in ICR-JCL mice; type: in vivo; details: intraperitoneal, once a day for 10 days, fifth week
Description: as §1, §2, §3
(2) An antitumor activity test using Ehrlich Carcinoma in ICR-JCL mice

[3] = system: Meth-A; test: Antitumor activity test using Meth-A in Balb/c mice; type: in vivo; details: intraperitoneal, once a day for 10 days, fifth week
Description: as §1, §2, §3
(3) An antitumor activity test using Meth-A in Balb/c mice

[4] = system: Sarcoma 180; test: Antitumor activity test using Sarcoma 180 in C3H/He mice; type: in vivo; details: intraperitoneal, once a day for 10 days, fifth week
Description: as §1, §2, §3
(4) An antitumor activity test using Sarcoma 180 in C3H/He mice

[5] = system: Sarcoma 180; test: Antitumor activity test using Sarcoma 180 in Balb/c mice; type: in vivo; details: 1 mg/kg/day, intraperitoneal, once a day for 10 days, fifth week
Description: as §1, with “The ascites cells of Sarcoma 180 were inoculated peritoneally in ICR-JCL mice having a body weight of about 23 g. […] Starting” for “Starting”
as §2, §3
(5) An antitumor activity test using Sarcoma 180 in Balb/c mice
Six million Sarcoma 180 cells were transplanted into the subcutaneous portion of the right inguinal part of the Balb/c mice having a body weight of about 23 g, and then, the same operation as in (1 ) above was performed.

[6] = system: Sarcoma 180; test: Antitumor activity test using Sarcoma 180 in C57 BL/6 mice; type: in vivo; details: 1 mg/kg/day, intraperitoneal, once a day for 10 days, fifth week
Description: as §1, with “The ascites cells of Sarcoma 180 were inoculated peritoneally in ICR-JCL mice having a body weight of about 23 g. […] Starting” for “Starting”
as §2, §3
(6) An antitumor activity test using Sarcoma 180 in C57 BL/6 mice
Six million Sarcoma 180 cells were transplanted into the subcutaneous portion of the right inguinal part of the C57 BL/6 mice having a body weight of about 20 g, and then the same operation as in (1) above was performed.

[7] = system: Sarcoma 180; test: Antitumor activity test using Sarcoma 180 in ddY mice; type: in vivo; details: 1 mg/kg/day, intraperitoneal, once a day for 10 days, fifth week
Description: as §1, with “The ascites cells of Sarcoma 180 were inoculated peritoneally in ICR-JCL mice having a body weight of about 23 g. […] Starting” for “Starting”
as §2, §3
(7) An antitumor activity test using Sarcoma 180 in ddY mice
Six million Sarcoma 180 cells were transplanted into the subcutaneous portion of the right inguinal part of ddY mice having a body weight of about 23 g, and then, the same operation as in (1) above was performed.

[8] = system: CCM-adenocarcinoma; test: Antitumor activity test using CCM-adenocarcinoma in ICR-JCL mice; type: in vivo; details: 1 mg/kg/day, intraperitoneal, once a day for 10 days, fifth week
Description: as §1, with “The ascites cells of Sarcoma 180 were inoculated peritoneally in ICR-JCL mice having a body weight of about 23 g. […] Starting” for “Starting”
as §2, §3
(8) An antitumor activity test using CCM-adenocarcinoma in ICR-JCL mice
Six million CCM-adenocarcinoma cells were transplanted into the subcutaneous portion of the right inguinal part of ICR-JCL mice having a body weight of about 23 g, and then the same operation as in (1) above was performed.

[9] = system: NTF-reticulum cell sarcoma; test: Antitumor activity test using NTF-reticulum cell sarcoma in ICR-JCL mice; type: in vivo; details: 1 mg/kg/day, intraperitoneal, once a day for 10 days, fifth week
Description: as §1, with “The ascites cells of Sarcoma 180 were inoculated peritoneally in ICR-JCL mice having a body weight of about 23 g. […] Starting” for “Starting”
as §2, §3
(9) An antitumor activity test using NTF-reticulum cell sarcoma in ICR-JCL mice
Six million NFT-reticulum cell sarcoma cells were transplanted into the subcutaneous portion of the right inguinal part of ICR-JCL mice having a body weight of about 23 g, and then, the same operation as in (1) above was performed.

[10] = system: ICR-JCL mice; test: Toxicity (LD50) on ICR-JCL mice; type: in vivo; details: ICR-JCL mice
Excerpt: The toxicity of the β-1,3-glucanpolyol of this invention is very low, and the LD50 values of the products obtained in Examples 1, 4 and 5, for example, on ICR-JCL mice are as shown in Table 10.

[11] = Intrinsic viscosity [.eta.]; type: physicochemical; details: 25° C., aqueous solution; concentration in g/100 ml
Description: The intrinsic viscosity, as used in the present invention, is [.eta.] defined by the following equation. [formula] wherein .eta.sp =(.eta.-.eta.o)/.eta.o =/.eta.o -1 in which .eta. is the viscosity (at 25° C. in aqueous solution) of the solution and .eta.o is the viscosity of the solvent; and C is the concentration in g/100 ml.

## β-1,3-glucanpolyol [Example 1]
[1]; 1 mg/kg/day
  Average weight of tumor: 0.28 g
  Complete regression: 9/10
  Tumor inhibition ratio: 97.5%
[1]; 5 mg/kg/day
  Average weight of tumor: 0 g
  Complete regression: 10/10
  Tumor inhibition ratio: 100%
[1]; 10 mg/kg/day
  Average weight of tumor: 0.17 g
  Complete regression: 9/10
  Tumor inhibition ratio: 98.5%
[2]; 1 mg/kg/day
  Average weight of tumor: 0 g
  Complete regression: 10/10
  Tumor inhibition ratio: 100%
[2]; 5 mg/kg/day
  Average weight of tumor: 0 g
  Complete regression: 10/10
  Tumor inhibition ratio: 100%
[2]; 20 mg/kg/day
  Average weight of tumor: 0.31 g
  Complete regression: 7/10
  Tumor inhibition ratio: 97.9%
[3]; 1 mg/kg/day
  Average weight of tumor: 7.74 g
  Complete regression: 0/10
  Tumor inhibition ratio: 42.1%
[3]; 5 mg/kg/day
  Average weight of tumor: 5.57 g
  Complete regression: 0/10
  Tumor inhibition ratio: 58.3%
[3]; 20 mg/kg/day
  Average weight of tumor: 9.25 g
  Complete regression: 0/10
  Tumor inhibition ratio: 30.8%
[4]; 1 mg/kg/day
  Average weight of tumor: 5.14 g
  Complete regression: 0/10
  Tumor inhibition ratio: 60.2%
[4]; 5 mg/kg/day
  Average weight of tumor: 2.14 g
  Complete regression: 6/10
  Tumor inhibition ratio: 83.4%
[4]; 20 mg/kg/day
  Average weight of tumor: 4.62 g
  Complete regression: 1/10
  Tumor inhibition ratio: 64.2%
[5]
  Average weight of tumor: 0.08 g
  Complete regression: 9/10
  Tumor inhibition ratio: 97.8%
[6]
  Average weight of tumor: 0.15 g
  Complete regression: 8/10
  Tumor inhibition ratio: 95.8%
[7]
  Average weight of tumor: 0.39 g
  Complete regression: 7/10
  Tumor inhibition ratio: 96.5%
[8]
  Average weight of tumor: 0.52 g
  Complete regression: 7/10
  Tumor inhibition ratio: 95.7%
[9]
  Average weight of tumor: 0.51 g
  Complete regression: 8/10
  Tumor inhibition ratio: 91.1%
[10]; intraperitoneal
  LD50 Intraperitoneal administration: above 2 g/kg
[10]; intravenous
  LD50 Intravenous administration: above 0.5 g/kg
[10]; oral
  LD50 Oral administration: above 20 g/kg
[11]
  Intrinsic viscosity [.eta.]: 6.21 dL/g

## β-1,3-glucanpolyol [Example 2]
[1]; 5 mg/kg/day
  Average weight of tumor: 0.30 g
  Complete regression: 8/10
  Tumor inhibition ratio: 97.3%
[2]; 1 mg/kg/day
  Average weight of tumor: 1.27 g
  Complete regression: 6/10
  Tumor inhibition ratio: 91.5%
[2]; 5 mg/kg/day
  Average weight of tumor: 0.83 g
  Complete regression: 7/10
  Tumor inhibition ratio: 94.4%
[3]; 5 mg/kg/day
  Average weight of tumor: 6.73 g
  Complete regression: 0/10
  Tumor inhibition ratio: 49.6%
[4]; 5 mg/kg/day
  Average weight of tumor: 3.50 g
  Complete regression: 4/10
  Tumor inhibition ratio: 72.9%
[5]
  Average weight of tumor: 0.09 g
  Complete regression: 8/10
  Tumor inhibition ratio: 97.5%
[6]
  Average weight of tumor: 0.21 g
  Complete regression: 8/10
  Tumor inhibition ratio: 94.1%
[7]
  Average weight of tumor: 1.08 g
  Complete regression: 7/10
  Tumor inhibition ratio: 90.3%
[8]
  Average weight of tumor: 0.61 g
  Complete regression: 8/10
  Tumor inhibition ratio: 95.0%
[9]
  Average weight of tumor: 0.37 g
  Complete regression: 8/10
  Tumor inhibition ratio: 93.6%
[11]
  Intrinsic viscosity [.eta.]: 7.25 dL/g
